In US9180082B2, “Biotin-conjugated hexapeptide-2 derivative and use thereof” (INCOSPHARM CORPORATION, priority 2012, dated 2015):
Where a SMILES comes first, the peptide text is derived from it. [ ]: non-standard residue; d: D form. The star is where a group is joined. ξ: configuration not given here. Biotin = O=C1N[C@H]2[C@H](CS[C@H]2CCCCC(=O)*)N1; ξW = NC(Cc1c[nH]c2ccccc12)C(=O)O; ξH = NC(Cc1c[nH]cn1)C(=O)O; ξF = NC(Cc1ccccc1)C(=O)O; ξK = NCCCCC(N)C(=O)O; ξA = CC(N)C(=O)O

What was measured:
[1] = tested on: type 1 collagen biosynthesis in fibroblasts; test: Type 1 collagen biosynthesis-promoting ability, ELISA of fibroblast culture supernatants; assay type: cell-based; conditions: supernatants of human dermal fibroblasts; dilutions of 200 uM, 20 uM and 2 uM, each 100 ul added to 100 ul medium; incubation 48 hours; FIG. 2
Description: The type 1 collagen produced was measured by ELISA assay to examine the effect of promoting collagen biosynthesis, and a control group with no sample added was considered as 100% to calculate the relative type 1 collagen production ability.
Thereafter, fibroblast culture supernatants described in Example 2 were treated to the 96-well plate coated with type 1 collagen antibodies, and reacted at room temperature for 2 hours. […] Reaction was stopped using 2 N hydrochloric acid, and absorbance was measured at 450 nm.

[2] = tested on: Human normal fibroblasts (Human Dermal Fibroblast neonatal); test: Cytotoxicity test by MTT assay; assay type: cell-based; conditions: dilutions of 200 uM, 20 uM and 2 uM, each 100 ul added to 100 ul medium, incubation 48 hours, FIG. 1
Description: In order to examine cytotoxicity of the biotin-conjugated hexapeptide-2 peptide synthesized in Example 1, the following experiment was performed. Cytotoxicity was examined by MTT assay, and a control group with no sample added was considered as 100% to calculate relative cytotoxicity. The detailed experimental method is as follows. Human normal fibroblasts (Human Dermal Fibroblast neonatal) were seeded in a 96-well plate for cell culture at a density of 3,000 cells per well, and cultured in 10% FBS (Fetal bovine serum)-containing DMEM (Dulbecco's Modified Eagle Media, Gibco BRL) in a 37° C., 5% CO2 incubator for 24 hours. Each test material was dissolved in water at a concentration of 10 mM to prepare concentrates, and the concentrates were diluted with 0.5% FBS-containing DMEM at a concentration of 200 uM, 20 uM, and 2 uM. Then, each 100 ul of the diluted solutions was added to each well previously containing 100 ul of the medium, followed by incubation for 48 hours. After completing the cultivation, the supernatants were used to determine the amount of type 1 collagen produced (Example 3), and the cells were used to determine cytotoxicity. […] Thereafter, the supernatant was carefully removed, and MTT formazan precipitates in the cells were dissolved in 100 ul of DMSO to determine absorbance at OD570 using an ELISA reader.

Structure (SMILES) | type 1 collagen biosynthesis (ELISA, relative to control group with no sample added = 100%) [1] | cytotoxicity (MTT assay, relative to control group with no sample added = 100%) [2]
CC(NC(=O)C(Cc1c[nH]c2ccccc12)NC(=O)C(Cc1c[nH]cn1)NC(=O)CCCC[C@@H]1SC[C@@H]2NC(=O)N[C@@H]21)C(=O)NC(Cc1c[nH]c2ccccc12)C(=O)NC(Cc1ccccc1)C(=O)NC(CCCCN)C(N)=O (stereo partly drawn) [biotin-conjugated hexapeptide-2] (Biotin-[ξH][ξW][ξA][ξW][ξF][ξK]-NH2) | significant increase | –
O=C(O)CCCC[C@@H]1SC[C@@H]2NC(=O)N[C@@H]21 [biotin] | no increase | –
C[C@H](NC(=O)[C@@H](Cc1c[nH]c2ccccc12)NC(=O)[C@@H](N)Cc1c[nH]cn1)C(=O)N[C@@H](Cc1c[nH]c2ccccc12)C(=O)N[C@H](Cc1ccccc1)C(=O)N[C@@H](CCCCN)C(N)=O [hexapeptide-2, His-D-Trp-Ala-Trp-D-Phe-Lys-NH2] (H-H[dW]AW[dF]K-NH2) | – | no cytotoxicity
